Test system: HBV
Assay: HepAD38 anti-HBV assay: reduction of viral product accumulation (virion DNA qPCR, HBsAg/HBeAg ELISA)
Assay type: cell-based
Conditions: Hepatitis B virus, 120 h; HepAD38 cells; concentration reducing viral product accumulation by 50% relative to no drug controls; harvest five days after compound addition; read-out: HepAD38 EC50
In short: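 Tetracycline-free HepAD38 cells treated 5 days with compound (1:200 DMSO dilution), or 8 days with media and compound refreshed on d2 and d5. Virion DNA quantified by qPCR; HBsAg or HBeAg by ELISA. EC50 is the concentration reducing viral product accumulation 50% versus no-drug controls.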

Compound | EC50 [nM]
O=C(N[C@H]1CC2=C(c3ccn(C(F)F)n3)[C@H](c3ccc(F)cc3Cl)N=C(c3nccs3)N2C1)N1C[C@@H](O)[C@@H](O)C1 [Example 226] | 100 to 400
O=C(N[C@H]1CC2=C(c3ccn(C(F)F)n3)[C@H](c3ccc(F)cc3Cl)N=C(c3nccs3)N2C1)C1(c2ccccn2)CC1 [Example 322] | 100 to 400
O=S(=O)(N[C@H]1CC2=C(c3ccn(C(F)F)n3)[C@H](c3ccc(F)cc3Cl)N=C(c3nccs3)N2C1)c1c(Cl)cccc1Cl [Example 402] | 100 to 400
O=C(N[C@H]1CC2=C(c3ccn(C(F)F)n3)[C@H](c3ccc(F)cc3Cl)N=C(c3nccs3)N2C1)N1CCC[C@H](O)C1 [Example 229] | 100 to 400
CCNS(=O)(=O)N[C@H]1CC2=C(c3ccn(C(F)F)n3)[C@H](c3ccc(F)cc3Cl)N=C(c3nccs3)N2C1 [Example 76] | < 100
O=C(O)c1cccc(S(=O)(=O)N[C@H]2CC3=C(c4ccn(C(F)F)n4)[C@H](c4ccc(F)cc4Cl)N=C(c4nccs4)N3C2)c1 [Example 5] | < 100
O=C1NCC2(CCN(S(=O)(=O)N[C@H]3CC4=C(c5ccn(C(F)F)n5)[C@H](c5ccc(F)cc5Cl)N=C(c5nccs5)N4C3)CC2)O1 [Example 163] | < 100
O=S(=O)(NCC(O)c1ccccn1)N[C@H]1CC2=C(c3ccn(C(F)F)n3)[C@H](c3ccc(F)cc3Cl)N=C(c3nccs3)N2C1 (stereo partly shown) [Example 308] | < 100
O=C(N[C@H]1CC2=C(c3ccn(C(F)F)n3)[C@H](c3ccc(F)cc3Cl)N=C(c3nccs3)N2C1)N1CCCCC1 [Example 206] | 100 to 400
OCCOC[C@@]1(O)CC2=C(c3ccn(C(F)F)n3)[C@H](c3ccc(F)cc3Cl)N=C(c3nccs3)N2C1 [Example 111] | > 400
Cc1cc(F)c(C(=O)O)cc1S(=O)(=O)N[C@H]1CC2=C(c3ccn(C(F)F)n3)[C@H](c3ccc(F)cc3Cl)N=C(c3nccs3)N2C1 [Example 29] | > 400
O=S(=O)(N[C@H]1CC2=C(c3ccn(C(F)F)n3)[C@H](c3ccc(F)cc3Cl)N=C(c3nccs3)N2C1)[C@H]1C[C@@H]1c1ccccn1 [Example 390] | 100 to 400
COC(=O)C1CCCN1CCS(=O)(=O)N[C@H]1CC2=C(c3ccn(C(F)F)n3)[C@H](c3ccc(F)cc3Cl)N=C(c3nccs3)N2C1 (stereo partly shown) [Example 60] | > 400
O=S(=O)(NCc1nccs1)N[C@H]1CC2=C(c3ccn(C(F)F)n3)[C@H](c3ccc(F)cc3Cl)N=C(c3nccs3)N2C1 [Example 307] | < 100
CONC[C@]1(O)CC2=C(c3ccn(C(F)F)n3)[C@H](c3ccc(F)cc3Cl)N=C(c3nccs3)N2C1 [Example 127] | > 400
O=S(=O)(N[C@H]1CC2=C(c3ccn(C(F)F)n3)[C@H](c3ccc(F)cc3Cl)N=C(c3nccs3)N2C1)NC1(Cc2ccccn2)CC1 [Example 325] | 100 to 400
O=S(=O)(N[C@H]1CC2=C(c3ccn(C(F)F)n3)[C@H](c3ccc(F)cc3Cl)N=C(c3nccs3)N2C1)C1CC(OCc2ccccc2)C1 (stereo partly shown) [Example 296] | < 100
O=C(N[C@H]1CC2=C(c3ccn(C(F)F)n3)[C@H](c3ccc(F)cc3Cl)N=C(c3nccs3)N2C1)C1CC1 [Example 236] | < 100
O=C(NCc1ccccn1)N[C@H]1CC2=C(c3ccn(C(F)F)n3)[C@H](c3ccc(F)cc3Cl)N=C(c3nccs3)N2C1 [Example 217] | > 400
O=S(=O)(N[C@H]1CC2=C(c3ccn(C(F)F)n3)[C@H](c3ccc(F)cc3Cl)N=C(c3nccs3)N2C1)N1CCC2(CC2)C1 [Example 286] | < 100

Compound | EC50 [nM]
COC(=O)CCCS(=O)(=O)N[C@H]1CC2=C(c3ccn(C(F)F)n3)[C@H](c3ccc(F)cc3Cl)N=C(c3nccs3)N2C1 [Example 9] | < 100
O=C(O)[C@H]1C[C@H](S(=O)(=O)N[C@H]2CC3=C(c4ccn(C(F)F)n4)[C@H](c4ccc(F)cc4Cl)N=C(c4nccs4)N3C2)C1 [Example 16] | > 400
O[C@@]1(CNCc2ccccc2)CC2=C(c3ccn(C(F)F)n3)[C@H](c3ccc(F)cc3Cl)N=C(c3nccs3)N2C1 [Example 119] | > 400
O=S(=O)(N[C@H]1CC2=C(c3ccn(C(F)F)n3)[C@H](c3ccc(F)cc3Cl)N=C(c3nccs3)N2C1)N1CC[C@H](F)C1 [Example 272] | < 100
C=CCOC[C@]1(O)CC2=C(c3ccn(C(F)F)n3)[C@H](c3ccc(F)cc3Cl)N=C(c3nccs3)N2C1 [Example 108] | 100 to 400
O=S(=O)(N[C@H]1CC2=C(c3ccn(C(F)F)n3)[C@H](c3ccc(F)cc3Cl)N=C(c3nccs3)N2C1)c1ccc([C@H]2CC[C@@](O)(c3ccccn3)CC2)cc1 [Example 384] | < 100
O=S(=O)(N[C@H]1CC2=C(c3ccn(C(F)F)n3)[C@H](c3ccc(F)cc3Cl)N=C(c3nccs3)N2C1)N[C@@H](c1ccccn1)C1CC1 [Example 354] | 100 to 400
O=C(N[C@H]1CC2=C(c3ccn(C(F)F)n3)[C@H](c3ccc(F)cc3Cl)N=C(c3nccs3)N2C1)OC1CCCCC1 [Example 251] | < 100
O=C1NC2(CCN(S(=O)(=O)N[C@H]3CC4=C(c5ccn(C(F)F)n5)[C@H](c5ccc(F)cc5Cl)N=C(c5nccs5)N4C3)CC2)CO1 [Example 162] | < 100
OCC(O)[C@@]1(F)CC2=C(c3ccn(C(F)F)n3)[C@H](c3ccc(F)cc3Cl)N=C(c3nccs3)N2C1 (stereo partly shown) [Example 170] | 100 to 400
O=S(=O)(NCc1ccccn1)N[C@H]1CC2=C(c3ccn(C(F)F)n3)[C@H](c3ccc(F)cc3Cl)N=C(c3nccs3)N2C1 [Example 306] | 100 to 400
OC/C=C/[C@@]1(F)CC2=C(c3ccn(C(F)F)c3)[C@H](c3ccc(F)cc3Cl)N=C(c3nccs3)N2C1 [Example 175] | 100 to 400
CC(C)(C)OC(=O)Nc1cccc(S(=O)(=O)N[C@H]2CC3=C(c4ccn(C(F)F)n4)[C@H](c4ccc(F)cc4Cl)N=C(c4nccs4)N3C2)n1 [Example 382] | 100 to 400
C=CCNC[C@]1(N)CC2=C(c3ccn(C(F)F)n3)[C@H](c3ccc(F)cc3Cl)N=C(c3nccs3)N2C1 [Example 147] | > 400
COC(=O)c1ccc(C#CCN2CCN([C@H]3CC4=C(c5ccn(C(F)F)n5)[C@H](c5ccc(F)cc5Cl)N=C(c5nccs5)N4C3)C2=O)cc1 [Example 42] | > 400
COCCOC[C@@]1(O)CC2=C(c3ccn(C(F)F)n3)[C@H](c3ccc(F)cc3Cl)N=C(c3nccs3)N2C1 [Example 112] | > 400
COC(=O)NC[C@@]1(F)CC2=C(c3ccn(C(F)F)n3)[C@H](c3ccc(F)cc3Cl)N=C(c3nccs3)N2C1 [Example 186] | 100 to 400
OC/C=C/[C@]1(F)CC2=C(c3ccn(C(F)F)n3)[C@H](c3ccc(F)cc3Cl)N=C(c3nccs3)N2C1 [Example 174] | 100 to 400
C[C@@H](NC(=O)CC1(S(=O)(=O)N[C@H]2CC3=C(c4ccn(C(F)F)n4)[C@H](c4ccc(F)cc4Cl)N=C(c4nccs4)N3C2)CC1)c1ccccn1 [Example 373] | < 100
O=C(N[C@H]1CC2=C(c3ccn(C(F)F)n3)[C@H](c3ccc(F)cc3Cl)N=C(c3nccs3)N2C1)C1CC(O)C1 (stereo partly shown) [Example 250] | 100 to 400

Compound | EC50 [nM]
O=C(N[C@H]1CC2=C(c3ccn(C(F)F)n3)[C@H](c3ccc(F)cc3Cl)N=C(c3nccs3)N2C1)O[C@H]1C[C@H](O)C1 [Example 255] | 100 to 400
O=S(=O)(Nc1ccncc1)N[C@H]1CC2=C(c3ccn(C(F)F)n3)[C@H](c3ccc(F)cc3Cl)N=C(c3nccs3)N2C1 [Example 83] | 100 to 400
COC(=O)C1CCCN(CCS(=O)(=O)N[C@H]2CC3=C(c4ccn(C(F)F)n4)[C@H](c4ccc(F)cc4Cl)N=C(c4nccs4)N3C2)C1 (stereo partly shown) [Example 66] | > 400
CC[C@@H](NS(=O)(=O)N[C@H]1CC2=C(c3ccn(C(F)F)n3)[C@H](c3ccc(F)cc3Cl)N=C(c3nccs3)N2C1)c1ccccn1 [Example 352] | 100 to 400
O=S(=O)(N[C@H]1CC2=C(c3ccn(C(F)F)n3)[C@H](c3ccc(F)cc3Cl)N=C(c3nccs3)N2C1)c1cc(F)cc(F)c1 [Example 407] | 100 to 400
C#CCNC[C@@]1(O)CC2=C(c3ccn(C(F)F)n3)[C@H](c3ccc(F)cc3Cl)N=C(c3nccs3)N2C1 [Example 114] | > 400
O=S(=O)(N[C@H]1CC2=C(c3ccn(C(F)F)n3)[C@H](c3ccc(F)cc3Cl)N=C(c3nccs3)N2C1)c1cccc(C2CC2)n1 [Example 408] | < 100
C=CCNC[C@@]1(O)CC2=C(c3ccn(C(F)F)n3)[C@H](c3ccc(F)cc3Cl)N=C(c3nccs3)N2C1 [Example 116] | > 400
CCOC(=O)C(NS(=O)(=O)N[C@H]1CC2=C(c3ccn(C(F)F)n3)[C@H](c3ccc(F)cc3Cl)N=C(c3nccs3)N2C1)c1ccccn1 (stereo partly shown) [Example 343] | < 100
O[C@]1(Cn2cccn2)CC2=C(c3ccn(C(F)F)n3)[C@H](c3ccc(F)cc3Cl)N=C(c3nccs3)N2C1 [Example 120] | > 400
O/N=C/[C@]1(F)CC2=C(c3ccn(C(F)F)n3)[C@H](c3ccc(F)cc3Cl)N=C(c3nccs3)N2C1 [Example 179] | > 400
CS(=O)(=O)N1CCN(C(=O)N[C@H]2CC3=C(c4ccn(C(F)F)n4)[C@H](c4ccc(F)cc4Cl)N=C(c4nccs4)N3C2)CC1 [Example 222] | 100 to 400
O=C(O)Cc1ccccc1S(=O)(=O)N[C@H]1CC2=C(c3ccn(C(F)F)n3)[C@H](c3ccc(F)cc3Cl)N=C(c3nccs3)N2C1 [Example 32] | 100 to 400
CONC[C@@]1(O)CC2=C(c3ccn(C(F)F)n3)[C@H](c3ccc(F)cc3Cl)N=C(c3nccs3)N2C1 [Example 126] | > 400
O=S(=O)(N[C@H]1CC2=C(c3ccn(C(F)F)n3)[C@H](c3ccc(F)cc3Cl)N=C(c3nccs3)N2C1)c1cccc(Br)n1 [Example 366] | < 100
O=S(=O)(CCN1CCCC1)N[C@H]1CC2=C(c3ccn(C(F)F)n3)[C@H](c3ccc(F)cc3Cl)N=C(c3nccs3)N2C1 [Example 54] | 100 to 400
CCOC(=O)Cc1ccccc1S(=O)(=O)N[C@H]1CC2=C(c3ccn(C(F)F)n3)[C@H](c3ccc(F)cc3Cl)N=C(c3nccs3)N2C1 [Example 30] | 100 to 400
O=C(O)c1cccc(S(=O)(=O)NC[C@]2(O)CC3=C(c4ccn(C(F)F)n4)[C@H](c4ccc(F)cc4Cl)N=C(c4nccs4)N3C2)c1 [Example 132] | > 400

— US11472808B2, “Substituted pyrrolo[1,2-c]pyrimidines as hepatitis B antiviral agents” (Enanta Pharmaceuticals, Inc., priority 2019, dated 2022)
